Assay results: PMC7933930, “Development of a small molecule that corrects misfolding and increases secretion of Z α1‐antitrypsin” (EMBO Molecular Medicine, 2021)

Columns and labels:
PDE4B = PDE4B (Homo sapiens, UniProt Q07343); assay: Off‐target panel: PDE4B; format: biochemical; details: Inhibition, read-out: Mean (PXC50)
Experimental: (§1) GSK716 selectivity and PK properties were profiled in order to investigate the suitability of GSK716 for progression into in vivo studies and the potential for taking it forward as a clinical candidate for testing in humans. Since GSK716 results in loss of inhibitory activity of α1‐antitrypsin, the effect of the compound was assessed on other closely related serpins. […] Furthermore, there were no off‐target effects in a panel of assays considered predictive of known safety liabilities that precluded further development of GSK716 (Table EV1).

Phospholipidosis = assay: Off‐target panel: Phospholipidosis; format: cell-based; details: Induction (pMEC)
Experimental: as §1

Z α1‐antitrypsin [1] = target: T1, Z α1‐antitrypsin (Homo sapiens, UniProt P01009, E366K); assay: Rapid refolding by snap dilution, non‐denaturing PAGE; format: biochemical; design: purified from the plasma of Z α1‐antitrypsin homozygotes; from tissue; host or cells: human plasma of Z α1-antitrypsin homozygotes; details: snap dilution from denaturant
T1 sequence (P01009 25-418 E366K): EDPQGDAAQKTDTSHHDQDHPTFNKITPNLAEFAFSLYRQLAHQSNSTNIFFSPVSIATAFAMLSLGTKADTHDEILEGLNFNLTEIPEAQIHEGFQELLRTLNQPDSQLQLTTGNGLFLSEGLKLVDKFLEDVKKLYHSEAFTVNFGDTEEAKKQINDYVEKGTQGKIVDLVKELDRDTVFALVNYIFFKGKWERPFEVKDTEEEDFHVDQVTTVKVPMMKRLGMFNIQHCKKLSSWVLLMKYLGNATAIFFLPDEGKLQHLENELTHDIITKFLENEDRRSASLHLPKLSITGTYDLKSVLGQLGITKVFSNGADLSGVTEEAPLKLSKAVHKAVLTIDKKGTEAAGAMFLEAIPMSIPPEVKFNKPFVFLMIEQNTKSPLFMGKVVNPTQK

Serotonin 5HT1B = Serotonin 5HT1B (Homo sapiens, UniProt P28222); assay: Off‐target panel: Serotonin 5HT1B (DRX); format: cell-based
Chain of Serotonin 5HT1B (P28222 whole entry): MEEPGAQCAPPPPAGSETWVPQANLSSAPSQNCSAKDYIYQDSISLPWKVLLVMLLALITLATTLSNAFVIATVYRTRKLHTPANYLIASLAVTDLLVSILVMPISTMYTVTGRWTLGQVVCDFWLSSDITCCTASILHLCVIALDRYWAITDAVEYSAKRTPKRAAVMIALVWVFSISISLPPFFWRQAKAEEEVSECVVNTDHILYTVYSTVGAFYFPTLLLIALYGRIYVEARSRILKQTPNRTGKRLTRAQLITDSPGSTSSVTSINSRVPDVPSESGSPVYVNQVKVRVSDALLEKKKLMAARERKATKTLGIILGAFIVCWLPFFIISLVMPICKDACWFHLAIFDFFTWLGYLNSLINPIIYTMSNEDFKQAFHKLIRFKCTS
Experimental: as §1

[2] = Oral pharmacokinetics in rat; format: in vivo; details: Han Wistar, whole blood, ≤ 3 mg/kg, read-out: F (oral bioavailability)
Experimental: […] Blood samples were taken into EDTA, diluted and mixed with acetonitrile containing internal standard (alprazolam) and centrifuged to precipitate proteins. Aliquots of the resultant supernatant were analysed by LC‐MS/MS, and concentrations of GSK716 in blood were determined. Non‐compartmental pharmacokinetic analysis (NCA) was carried out using Phoenix WinNonLin 6.3 (Certara L.P.). Free drug was measured in Z α1‐antitrypsin transgenic mice by dialysing tissue samples in rapid equilibrium dialysis cassettes.

Serotonin 5HT2B = Serotonin 5HT2B (Homo sapiens, UniProt P41595); assay: Off‐target panel: Serotonin 5HT2B (DRX); format: cell-based
Chain of Serotonin 5HT2B (P41595 whole entry): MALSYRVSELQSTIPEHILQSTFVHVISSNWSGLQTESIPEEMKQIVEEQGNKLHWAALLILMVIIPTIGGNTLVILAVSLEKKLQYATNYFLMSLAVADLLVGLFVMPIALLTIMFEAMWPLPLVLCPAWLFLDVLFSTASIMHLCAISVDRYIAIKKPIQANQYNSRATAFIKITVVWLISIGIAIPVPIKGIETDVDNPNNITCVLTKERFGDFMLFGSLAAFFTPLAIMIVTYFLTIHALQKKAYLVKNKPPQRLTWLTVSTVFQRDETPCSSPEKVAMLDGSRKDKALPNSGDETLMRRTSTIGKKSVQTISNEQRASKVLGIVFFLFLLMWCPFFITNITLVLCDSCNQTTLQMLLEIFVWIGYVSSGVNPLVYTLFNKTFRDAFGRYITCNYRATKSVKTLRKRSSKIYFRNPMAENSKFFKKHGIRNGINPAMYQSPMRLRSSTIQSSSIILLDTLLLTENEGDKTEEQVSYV
Experimental: as §1

NK1 (TACR1) = NK1 (TACR1) (Homo sapiens, UniProt P25103); assay: Off‐target panel: NK1 (TACR1) (DRX); format: cell-based; details: Antagonist, read-out: Mean (PXC50)
Chain of NK1 (TACR1) (P25103 whole entry, species assumed): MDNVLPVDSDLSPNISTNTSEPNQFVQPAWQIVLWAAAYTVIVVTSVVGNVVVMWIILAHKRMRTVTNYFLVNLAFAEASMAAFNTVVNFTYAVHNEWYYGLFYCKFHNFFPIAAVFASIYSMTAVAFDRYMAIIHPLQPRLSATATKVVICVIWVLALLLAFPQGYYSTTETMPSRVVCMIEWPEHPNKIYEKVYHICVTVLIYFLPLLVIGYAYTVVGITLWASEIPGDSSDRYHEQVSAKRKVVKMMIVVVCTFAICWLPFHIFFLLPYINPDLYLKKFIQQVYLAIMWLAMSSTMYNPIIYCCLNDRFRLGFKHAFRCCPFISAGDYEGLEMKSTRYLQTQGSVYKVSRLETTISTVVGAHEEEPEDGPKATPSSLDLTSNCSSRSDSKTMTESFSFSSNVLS
Experimental: as §1

OPRK1 = OPRK1 (Homo sapiens, UniProt P41145); assay: Off‐target panel: OPRK1 (DRX); format: cell-based
Chain of OPRK1 (P41145 whole entry, species assumed): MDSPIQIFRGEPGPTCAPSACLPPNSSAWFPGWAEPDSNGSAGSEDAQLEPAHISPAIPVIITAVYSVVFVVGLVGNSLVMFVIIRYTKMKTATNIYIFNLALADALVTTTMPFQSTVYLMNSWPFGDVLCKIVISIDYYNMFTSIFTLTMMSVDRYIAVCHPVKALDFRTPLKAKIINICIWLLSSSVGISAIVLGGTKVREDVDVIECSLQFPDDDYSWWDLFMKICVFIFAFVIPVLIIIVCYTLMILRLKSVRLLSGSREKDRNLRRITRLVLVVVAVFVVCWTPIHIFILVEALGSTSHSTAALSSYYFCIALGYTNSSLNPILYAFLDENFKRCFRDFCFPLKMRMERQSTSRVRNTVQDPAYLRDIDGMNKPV
Experimental: as §1

ChromLogD = format: physicochemical; details: pH 7.4; pH7.4
Experimental: ChromLogD was measured as previously described (Valkó et al, 1997).

Z α1‐antitrypsin [3] = target: T1, Z α1‐antitrypsin; assay: Circulating monomeric Z α1‐antitrypsin in plasma of Z α1‐antitrypsin transgenic mice; format: in vivo, mouse; design: random insertion of the human Z α1‐antitrypsin gene; from tissue; host or cells: hemizygous Z α1-antitrypsin transgenic mice (liver, plasma)
Experimental: GSK716 was evaluated in a transgenic mouse model with an engineered random insertion of the human Z α1‐antitrypsin gene (Teckman et al, 2004). […] Further, older mice have larger α1‐antitrypsin inclusions that may be more difficult to reverse and any changes would be more difficult to detect than in younger animals. The PK‐PD relationship of GSK716 was explored by dosing Z α1‐antitrypsin transgenic animals with 10, 30 or 100 mg/kg GSK716 three times a day. Blood and liver were harvested on day 6 at 3 h (~ C max) and 8 h (C min) after the dose for the measurement of total and free drug in both tissues. Blood was also harvested for the measurement of monomeric Z α1‐antitrypsin in plasma. Total concentrations of GSK716 were determined by LC‐MS/MS, and the free drug in both tissues was determined using equilibrium dialysis to determine free fraction in the samples, subsequently used to derive unbound concentrations. […] Both free and total drug concentrations of GSK716 at the targeted site of action in the liver were equivalent to those in blood (Table 2).
A significant fraction of the total Z α1‐antitrypsin in the circulation is in the polymeric conformation (Tan et al, 2014). There are no antibodies that are specific for monomeric Z α1‐antitrypsin and so to directly determine its concentration, a deconvolution method was developed based on immunoassays with antibodies for either total or polymeric α1‐antitrypsin, and calibration curves with purified monomeric and polymeric Z α1‐antitrypsin. Monomeric Z α1‐antitrypsin was measured in plasma samples following 6 days of dosing, and levels were normalised to each animals’ pre‐dose control levels to account for the natural variation of Z α1‐antitrypsin between animals. […] Total drug levels and changes in Z α1‐antitrypsin following 3 days of dosing were indistinguishable from those following 6 days of dosing. There was no effect on circulating serum albumin after 5 days of dosing which provides evidence that GSK716 is specific for Z α1‐antitrypsin. Moreover, the effects are not mediated by metabolites of GSK716 as the major metabolites have much reduced or no binding to α1‐antitrypsin.
Plasma standards of monomeric and polymeric Z α1‐antitrypsin were prepared and assayed with an antibody mix comprising a 1:160 dilution of rabbit polyclonal anti‐ α1‐antitrypsin (Abcam product 9373), 0.23 µg/ml terbium anti‐mouse, 4.5 µg/ml Alexa488 goat anti‐rabbit, 0.17 µg/ml mouse anti‐total‐ α1‐antitrypsin monoclonal 3C11 and 2 µg/ml mouse 2C1 anti‐polymeric‐ α1‐antitrypsin. After a 16‐h incubation at 20°C, TR‐FRET detection was performed on an Envision plate reader (Perkin Elmer).
Plots of the FRET ratio (acceptor/donor signal) versus sample dilution result in bell‐shaped curves due to the hook effect. The polymer Z α1‐antitrypsin concentration was determined by comparing the peak positions of these bell‐shaped curves for plasma samples with those for polymer calibration samples. The polymer concentration in the plasma sample and the polymer calibration curve was then used to derive the contribution of polymer to the FRET signal in the total α1‐antitrypsin assay at the signal peak, enabling determination of the concentration of monomeric Z α1‐antitrypsin.
Hemizygous female Z α1‐antitrypsin transgenic mice were 13–15 weeks of age at start of study. Drugs were administered via oral gavage three times a day at 8‐h intervals at 10 ml/Kg as a suspension in aqueous methylcellulose containing 0.5% w/v Tween 80. […]

Chain of PDE4B (Q07343 whole entry, species assumed): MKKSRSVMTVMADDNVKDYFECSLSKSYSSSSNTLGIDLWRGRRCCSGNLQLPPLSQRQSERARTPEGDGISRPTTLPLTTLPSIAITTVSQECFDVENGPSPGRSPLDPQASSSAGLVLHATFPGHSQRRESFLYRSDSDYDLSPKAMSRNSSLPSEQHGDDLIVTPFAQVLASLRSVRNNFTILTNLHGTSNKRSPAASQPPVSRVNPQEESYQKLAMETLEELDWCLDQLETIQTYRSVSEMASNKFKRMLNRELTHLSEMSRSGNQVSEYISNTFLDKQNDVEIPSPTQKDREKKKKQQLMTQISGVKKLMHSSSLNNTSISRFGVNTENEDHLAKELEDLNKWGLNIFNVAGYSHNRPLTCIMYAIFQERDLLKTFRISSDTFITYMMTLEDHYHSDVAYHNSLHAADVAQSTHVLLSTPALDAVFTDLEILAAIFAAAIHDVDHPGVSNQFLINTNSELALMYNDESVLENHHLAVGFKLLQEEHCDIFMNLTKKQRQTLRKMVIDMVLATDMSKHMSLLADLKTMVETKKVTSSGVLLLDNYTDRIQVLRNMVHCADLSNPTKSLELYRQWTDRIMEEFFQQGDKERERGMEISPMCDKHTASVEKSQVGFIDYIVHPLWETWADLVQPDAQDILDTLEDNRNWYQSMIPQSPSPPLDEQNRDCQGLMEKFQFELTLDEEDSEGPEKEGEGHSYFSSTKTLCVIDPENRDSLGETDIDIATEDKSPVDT

## CCC[C@@H](NC(=O)c1cccc2c1CC(=O)N2)[C@@H](O)c1cccc(F)c1C [GSK716]
PDE4B
  IC50: > 100 µM
Phospholipidosis
  Mean (PXC50): pMEC: pMEC= 5.8
Z α1‐antitrypsin [1]
  misfolded by‐product of M* on refolding of the Z variant: corrected at stoichiometric concentrations and above
Serotonin 5HT1B
  EC50: > 100 µM
  IC50: > 100 µM
[2]
  bioavailability: 48%
Serotonin 5HT2B
  EC50: 39.8 µM
NK1 (TACR1)
  IC50: > 25.1 µM
OPRK1
  EC50: 20 µM
ChromLogD
  chromatographic logD: 3.8
Z α1‐antitrypsin [3]; 10 mg/kg three times a day, oral, 6 days of dosing
  change in circulating Z α1‐antitrypsin: significant, dose‐dependent increases
Z α1‐antitrypsin [3]; 30 mg/kg three times a day, oral, 6 days of dosing
  change in circulating Z α1‐antitrypsin: significant, dose‐dependent increases
Z α1‐antitrypsin [3]; 100 mg/kg three times a day, days 15 and 21 of dosing
  mean increase of monomeric Z α1‐antitrypsin in plasma over pre‐dosing baseline: sevenfold to eightfold
Z α1‐antitrypsin [3]; 100 mg/kg three times a day, oral, 6 days of dosing
  mean increase in circulating monomeric Z α1‐antitrypsin levels over pre‐dose: sevenfold
Z α1‐antitrypsin [3]; Z α1‐antitrypsin transgenic mice, within 3 days
  increase in circulating levels of Z α1‐antitrypsin: sevenfold
